Read-outs that look alike come from different tables or passages of the source.
How the values were obtained:
[1] = system: Photobacterium sp. JH-ISH-224 α2-6-sialyltransferase Psp26ST(15-501)-His6, wild type, SEQ ID NO: 23; conditions: apparent, donor CMP-Neu5Ac, cited from earlier work
[2] = system: Photobacterium sp. JH-ISH-224 α2-6-sialyltransferase Psp26ST(15-501)-His6 A366G mutant, SEQ ID NO: 2; assay: Sialyltransferase kinetics, Psp26ST(15-501)-His6 A366G mutant; format: biochemical; conditions: apparent, varied CMP-Neu5Ac
Protocol: Reactions were carried out in duplicate at 20° C. for 20 minutes in a total volume of 10 μL in a proper buffer at the optimal pH according to the pH profile of the wild-type enzyme (see, Ding, 2011, supra). When LacβMU was used as an acceptor, the conditions were: Tris-HCl buffer (200 mM, pH 8.0), enzyme (0.3 μM), varied concentrations of LacβMU (0.1, 0.25, 0.4, 1.0, 2.0, 4.0, and 6.0 mM) with a fixed concentration of CMP-Neu5Ac (1.0 mM) or varied concentrations of CMP-Neu5Ac (0.1, 0.25, 0.4, 1.0, 2.0, 4.0, and 6.0 mM) with a fixed concentration of LacβMU (1.0 mM). When GalNAcα2AA was used as an acceptor, the conditions were: NaOAc-HOAc buffer (200 mM, pH 5.0), enzyme (6 μM), varied concentrations of GalNAcα2AA (0.5, 0.8, 1.0, 2.0, 4.0, 8.0, and 10.0 mM) and a fixed concentration of CMP-Neu5Ac (4.0 mM) or varied concentrations of CMP-Neu5Ac (0.5, 1.0, 2.0, 4.0, 5.0, 8.0, and 10.0 mM) with a fixed concentration of GalNAcα2AA (1.0 mM). When GalNAcαSer was used as an acceptor, the conditions were: Tris-HCl buffer (200 mM, pH 8.0), enzyme (0.6 μM), varied concentrations of GalNAcαSer (0.1, 0.25, 0.5, 1.0, 2.0, 4.0, 8.0, and 10.0 mM) and a fixed concentration of CMP-Neu5Ac (2.0 mM). When GalNAcαThr was used as an acceptor, the conditions were: Tris-HCl buffer (200 mM, pH 8.0), enzyme (3.0 μM), varied concentrations of GalNAcαThr (0.5, 1.0, 2.0, 4.0, 10.0, 20.0, 40.0, 60.0 mM) and a fixed concentration of CMP-Neu5Ac (4.0 mM). Results analysis was performed using the HPLC system as described above for sialyltransferase activity assays. Apparent kinetic parameters were obtained by fitting the experimental data (the average values of duplicate assay results) into the Michaelis-Menten equation using Grafit 5.0.

[3] = biological target: Photobacterium sp. JH-ISH-224 α2-6-sialyltransferase Psp2,6ST(15-501)-His6, wild type, SEQ ID NO: 23 (Photobacterium sp. JT-ISH-224, UniProt A8QYL1); assay: Donor hydrolysis kinetics (CMP-Neu5Ac hydrolysis), wild-type Psp2,6ST(15-501)-His6; format: biochemical; conditions: apparent, 20° C., 10 min, Tris-HCl pH 8.0
Protocol: (§1) Procedure for Kinetic Analysis of Donor Hydrolysis by His6-Pd2,6ST(16-497), Psp26ST(15-501)-His6 and its A235D and A366G Mutants
(§2) The kinetics study for the donor hydrolysis activity of His6-Pd2,6ST(16-497) was carried out at 37° C. for 20 min in Tris-HCl buffer (200 mM, pH 8.0). The kinetics study for the donor hydrolysis activities of Psp26ST(15-501)-His6 and its A235D mutant was carried out at 20° C. for 10 min in Tris-HCl buffer (200 mM, pH 8.0). All reactions were performed in duplicate in a total volume of 10 μL containing varied concentrations of CMP-Neu5Ac (10, 20, 40, 60, 80 and 100 mM) and the enzyme (6 μM). Reactions were stopped by adding 10 μL of ethanol and then centrifuged. The supernatants were analyzed by a P/ACETM capillary electrophoresis (CE) system equipped with a photodiode array (PDA) detector (Beckman Coulter, Inc., Fullerton, Calif.). CE conditions were as follows: 75 μm i.d. capillary, 25 KV/80μÅ, 5 s vacuum injections, monitored at 200 nm and 254 nm, the running buffer used was sodium tetraborate (25 mM, pH 9.4). Apparent kinetic parameters were obtained by fitting the experimental data (the average values of duplicate assay results) into the Michaelis-Menten equation using Grafit 5.0.

[4] = substrate: CC(=O)N[C@H]1[C@H]([C@H](O)[C@H](O)CO)O[C@](OP(=O)(O)OC[C@H]2O[C@@H](n3ccc(N)nc3=O)[C@H](O)[C@@H]2O)(C(=O)O)C[C@@H]1O; assay: Donor hydrolysis kinetics (CMP-Neu5Ac hydrolysis), His6-Pd2,6ST(16-497); format: biochemical, Photobacterium damselae; conditions: other: apparent, 37° C., 20 min, Tris-HCl pH 8.0, pH 2.6
Protocol: as §1, §2

[5] = substrate: CC(=O)N[C@H]1[C@H]([C@H](O)[C@H](O)CO)O[C@](OP(=O)(O)OC[C@H]2O[C@@H](n3ccc(N)nc3=O)[C@H](O)[C@@H]2O)(C(=O)O)C[C@@H]1O; assay: Donor hydrolysis kinetics (CMP-Neu5Ac hydrolysis), Psp2,6ST(15-501)-His6 A235D mutant; format: biochemical, Photobacterium sp. JH-ISH-224; conditions: other: apparent, 20° C., 10 min, Tris-HCl pH 8.0
Protocol: as §1, §2

[6] = Kinetics of CMP-Neu5Ac donor hydrolysis activity (capillary electrophoresis); format: biochemical
Protocol: as §1, §2

[7] = Sialyltransferase activity assays, statements not tied to one acceptor (LacβMU, GalNAcα2AA, GalNAcαSer, GalNAcαThr); format: biochemical
Protocol: When LacβMU was used as an acceptor, the assay was performed in duplicate in 10 μL of Tris-HCl buffer (100 mM, pH 8.0) containing CMP-Neu5Ac (1 mM), LacβMU (1 mM), MgCl2 (20 mM), wild-type Psp2,6ST(15-501)-His6 or its mutant (0.3 μM). When an α-GalNAc-terminated acceptor was used, the assay was performed in duplicate in 10 μL of Tris-HCl buffer (100 mM, pH 8.0 for GalNAcαSer/Thr) or NaOAc-HOAc (100 mM, pH 5.0 for GalNAcα2AA) containing CMP-Neu5Ac (1.5 mM), the acceptor (1 mM), MgCl2 (20 mM), wild-type Psp2,6ST(15-501)-His6 or its mutant (3.0 μM). Reactions were allowed to proceed at 20° C. for 20 min and stopped by adding 10 μL of cold ethanol. The analysis of sialylated product conversion was performed using the HPLC system as described above for sialyltransferase activity assay. The 4-methylumbelliferone (MU)-labeled fluorescent acceptor and the product formed were detected with excitation at 325 nm and emission at 372 nm. The 2-aminobenzoic acid (2AA)-labeled fluorescent acceptors and the products formed were detected with excitation at 315 nm and emission at 400 nm. The 9-fluorenylmethylcarbamate (Fmoc)-labeled fluorescent acceptors and the products formed were detected with excitation at 262 nm and emission at 313 nm.

[8] = GalNAcα2AA 1.0 mM, NaOAc-HOAc pH 5.0, 20° C.
[9] = LacβMU 1.0 mM, Tris-HCl pH 8.0, 20° C.

In the case of CC(=O)N[C@H]1[C@H]([C@H](O)[C@H](O)CO)O[C@](OP(=O)(O)OC[C@H]2O[C@@H](n3ccc(N)nc3=O)[C@H](O)[C@@H]2O)(C(=O)O)C[C@@H]1O [CMP-Neu5Ac, cytidine 5′-monophosphate N-acetylneuraminic acid], the Km ([1]; acceptor GalNAcα2AA) is given as 3900 ± 400 µM, the kcat ([1]; acceptor GalNAcα2AA) is given as 0.08 ± 0.0033 s⁻¹ and the Km ([1]; acceptor LacβMU) is given as 620 µM. For the same molecule, the kcat ([1]; acceptor LacβMU) was “(1.4 ± 0.1) × 10^2 min^−1”, the Km [2, 8] was 3300 ± 400 µM and the kcat [2, 8] was 0.0983 ± 0.0033 s⁻¹. For the same molecule, the Km [2, 9] was 630 µM, the kcat [2, 9] was “(1.3 ± 0.1) × 10^2 min^−1” and the kcat [3] was “(2.9 ± 0.3) × 10^2 min^−1”.

B1: Photobacterium damselae α2-6-sialyltransferase His6-Pd2,6ST(16-497) (Photobacterium damselae) (protein)
chain: CNSDNTSLKETVSSNSADVVETETYQLTPIDAPSSFLSHSWEQTCGTPILNESDKQAISFDFVAPELKQDEKYCFTFKGITGDHRYITNTTLTVVAPTLEVYIDHASLPSLQQLIHIIQAKDEYPSNQRFVSWKRVTVDADNANKLNIHTYPLKGNNTSPEMVAAIDEYAQSKNRLNIEFYTNTAHVFNNLPPIIQPLYNNEKVKISHISLYDDGSSEYVSLYQWKDTPNKIETLEGEVSLLANYLAGTSPDAPKGMGNRYNWHKLYDTDYYFLREDYLDVEANLHDLRDYLGSSAKQMPWDEFAKLSDSQQTLFLDIVGFDKEQLQQQYSQSPLPNFIFTGTTTWAGGETKEYYAQQQVNVINNAINETSPYYLGKDYDLFFKGHPAGGVINDIILGSFPDMINIPAKISFEVLMMTDMLPDTVAGIASSLYFTIPADKVNFIVFTSSDTITDREEALKSPLVQVMLTLGIVKEKDVLFWA
With B1 the kcat [4] was 3.67 ± 0.333 s⁻¹.

B2: Photobacterium sp. JH-ISH-224 α2-6-sialyltransferase Psp2,6ST(15-501)-His6 A235D mutant, SEQ ID NO: 14 (Photobacterium sp. JT-ISH-224; A235D) (protein)
chain: CNNSEENTQSIIKNDINKTIIDEEYVNLEPINQSNISFTKHSWVQTCGTQQLLTEQNKESISLSVVAPRLDDDEKYCFDFNGVSNKGEKYITKVTLNVVAPSLEVYVDHASLPTLQQLMDIIKSEEENPTAQRYIAWGRIVPTDEQMKELNITSFALINNHTPADLVQEIVKQAQTKHRLNVKLSSNTAHSFDNLVPILKELNSFNNVTVTNIDLYDDGSDEYVNLYNWRDTLNKTDNLKIGKDYLEDVINGINEDTSNTGTSSVYNWQKLYPANYHFLRKDYLTLEPSLHELRDYIGDSLKQMQWDGFKKFNSKQQELFLSIVNFDKQKLQNEYNSSNLPNFVFTGTTVWAGNHEREYYAKQQINVINNAINESSPHYLGNSYDLFFKGHPGGGIINTLIMQNYPSMVDIPSKISFEVLMMTDMLPDAVAGIASSLYFTIPAEKIKFIVFTSTETITDRETALRSPLVQVMIKLGIVKEENVLFWA
B2 gave a kcat [5] of 4.17 ± 0.333 s⁻¹.

B3: A235D: Psp26ST(15-501)-His6 with A235D point mutation; SEQ ID NO: 14 (protein)
chain: B2 chain
modifications: C-terminal His6; Synthetic Psp26ST(15-501) A235D
With B3 the “donor hydrolysis activity compared to wild-type” value [6] was “decreased donor hydrolysis activity” and the “sialylation activity compared to wild-type” value [7] was “maintaining most of the sialylation activity”.

Reference: patent publication US9938510B2, “Photobacterium sp. alpha-2-6-sialyltransferase variants” (The Regents of the University of California, priority 2014, dated 2018)
